Assay results published in ChEMBL document CHEMBL1201862, “PubChem BioAssay data set” (2004).
Active and inactive are the calls of the source.

Assays:
[1] = biological target: T1, Rac GTPase-activating protein 1 (Homo sapiens, UniProt Q9H0H5); test: blockers of MgcRacGAP-driven Rac1 GTP hydrolysis – biochemical, ADP Hunter fluorescence, primary and confirmatory, confirmation (AID 624330); type: functional
T1 sequence (Q9H0H5 whole entry): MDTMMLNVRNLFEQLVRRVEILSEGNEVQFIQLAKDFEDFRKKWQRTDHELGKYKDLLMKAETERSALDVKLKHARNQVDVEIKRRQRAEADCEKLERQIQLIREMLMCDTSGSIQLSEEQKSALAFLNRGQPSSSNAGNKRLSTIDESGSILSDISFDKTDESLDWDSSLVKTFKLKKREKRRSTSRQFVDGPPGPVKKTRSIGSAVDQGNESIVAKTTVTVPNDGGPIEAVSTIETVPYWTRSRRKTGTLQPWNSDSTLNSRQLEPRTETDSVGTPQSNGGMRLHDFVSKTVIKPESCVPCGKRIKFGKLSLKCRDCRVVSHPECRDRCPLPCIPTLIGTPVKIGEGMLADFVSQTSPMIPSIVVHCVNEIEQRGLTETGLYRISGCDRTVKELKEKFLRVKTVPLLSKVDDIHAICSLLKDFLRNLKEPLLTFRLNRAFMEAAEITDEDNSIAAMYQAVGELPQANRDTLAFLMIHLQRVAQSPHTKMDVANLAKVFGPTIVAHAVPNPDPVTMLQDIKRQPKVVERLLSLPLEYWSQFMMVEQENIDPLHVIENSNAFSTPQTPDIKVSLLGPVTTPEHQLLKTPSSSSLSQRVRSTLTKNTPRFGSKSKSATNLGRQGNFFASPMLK

[2] = biological target: T2, Sentrin-specific protease 1 (Homo sapiens, UniProt Q9P0U3); test: SENP1 catalytic domain blockers, concentration series – biochemical, kinetic FRET, dose response (AID 651697); type: functional; conditions: read-out: IC50_Mean
[3] = biological target: T2, Sentrin-specific protease 1; test: Dose response confirmation of small molecule inhibitors of the catalytic domain of the SUMO protease, SENP1 in a FRET assay.; type: functional; conditions: read-out: IC50_Mean
[4] = biological target: Fructose-bisphosphate aldolase (Mycobacterium tuberculosis, UniProt P9WQA3); test: Fluorescence-based biochemical high throughput dose response assay for inhibitors of the fructose-bisphosphate aldolase (FBA) of M. tuberculosis.; type: functional
[5] = biological target: T3, Small ubiquitin-related modifier 1 (Homo sapiens, UniProt P63165); test: SUMO1 protein interaction blockers, potency – biochemical, fluorescence polarization, uHTS hits, dose response (AID 624382); type: functional; conditions: read-out: IC50_Mean
[6] = biological target: T3, Small ubiquitin-related modifier 1; test: SUMO1 protein-protein binding blockers, potency – biochemical, FRET, dose response (AID 624383); type: functional; conditions: read-out: IC50_Mean
[7] = biological target: T4, DNA repair protein RAD52 homolog (Homo sapiens, UniProt P43351); type: functional, biochemical
T4 sequence (P43351 whole entry): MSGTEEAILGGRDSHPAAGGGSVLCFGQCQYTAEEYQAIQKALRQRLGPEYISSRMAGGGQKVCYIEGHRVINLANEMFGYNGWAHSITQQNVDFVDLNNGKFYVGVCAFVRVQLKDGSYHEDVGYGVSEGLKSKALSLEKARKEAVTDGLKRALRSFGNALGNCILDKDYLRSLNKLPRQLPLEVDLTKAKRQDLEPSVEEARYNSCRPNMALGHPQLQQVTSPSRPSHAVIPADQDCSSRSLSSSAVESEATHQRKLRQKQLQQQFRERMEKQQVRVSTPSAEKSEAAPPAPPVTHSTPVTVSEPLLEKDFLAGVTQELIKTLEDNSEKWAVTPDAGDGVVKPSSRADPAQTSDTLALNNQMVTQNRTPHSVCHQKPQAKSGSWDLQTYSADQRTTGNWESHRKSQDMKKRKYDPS

[8] = biological target: Neurotensin receptor type 1 (Homo sapiens, UniProt P30989); type: functional;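 further: Image-based confirmatory dose-response assay measuring agonist activity at NTR1; NTR1-expressing U2OS osteosarcoma cells imaged for beta-arrestin GFP spot formation; agonist potency where compounds increase beta-arrestin recruitment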
[9] = general cell-killing toxicity readout – plate reader, dry powder samples, cytotoxicity control for PAX8 inhibitor project, dose response (AID 743021); type: functional, cell-based
[10] = DRD fibroblast viability loss – cell-based, non-viral oncogenic, luminescence, dose response (AID 1934); type: functional; conditions: Homo sapiens
BJ [11] = test: BJ-TERT-LT-ST fibroblast viability loss – cell-based, RAS-independent, luminescence, dose response (AID 1935); type: functional; conditions: Homo sapiens;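 further: BJ fibroblasts immortalized with TERT plus LT and ST oncogenes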
BJ [12] = test: cells; type: functional, cell-based; conditions: Homo sapiens
INS1 = test: INS-1E survival protection against cytokine death – cell-based, luminescence, retest, dose response (AID 449756); type: functional; conditions: Rattus norvegicus;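 further: cell death triggered by IL-1 beta plus TNF-alpha plus IFN-gamma mixture; protective hits raise ATP signal compared with cytokine alone wells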
[13] = viability loss in HeLa cells – cytotoxicity control for MgcRacGAP inhibitor project, dose response (AID 624300); type: functional
[14] = Trypanosoma cruzi growth suppression in host cells – NIH3T3 host cells, beta-gal luminescence, confirmation (AID 2044); type: functional, cell-based;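 further: intracellular parasites grown in NIH/3T3 mouse fibroblasts as host cells; luminescent beta-galactosidase reporter signal from transgenic T. cruzi replicating inside host cells; inhibitors lower the luminescence signal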
BJ [15] = test: BJ-TERT fibroblast viability loss – cell-based, RAS-independent, luminescence, dose response (AID 1933); type: functional; conditions: Homo sapiens
Paired box protein Pax-8 = Paired box protein Pax-8 (Homo sapiens, UniProt Q06710); test: PAX8 transcriptional activity inhibition in RMG-I – RMG-I cells, luciferase, cherry-pick, dose response (AID 687027); type: functional, cell-based;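 further: luciferase reporter driven by Pax8 target thyroperoxidase promoter measured by SteadyGlo luminescence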
[16] = NIH3T3 cell viability loss – ATP luminescence, mouse fibroblasts, counter-screen, dose response (AID 2010); type: functional, cell-based;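 further: cells exposed to compound for about 90 hours before reading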
[17] = biological target: T5, Endoribonuclease toxin MazF (Escherichia coli K-12, UniProt P0AE70); test: activation of MazEF endoribonuclease cleavage – biochemical, fluorescence, single-stranded RNA substrate, uHTS hits, dose response (AID 588481); type: functional
T5 sequence (P0AE70 whole entry): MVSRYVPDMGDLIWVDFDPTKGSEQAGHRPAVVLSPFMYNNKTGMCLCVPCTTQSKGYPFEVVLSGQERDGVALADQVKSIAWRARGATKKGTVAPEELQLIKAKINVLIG

[18] = biological target: T5, Endoribonuclease toxin MazF; test: substrate-only fluorescence increase artefacts – biochemical, single-stranded RNase substrate, counter-screen for MazEF activator project, dose response (AID 588502); type: functional
Albumin = Albumin (Bos taurus, UniProt P02769); test: Counterscreen for inhibitors of T-cell receptor (TCR)-CD3 interaction: Fluorescence-based biochemical high throughput dose response assay to identify inhibitors of T-cell receptor (TCR)-CD3 interaction using a TAMRA-labeled BSA probe.; type: functional
[19] = biological target: T6, Probable nicotinate-nucleotide adenylyltransferase (Staphylococcus aureus (strain N315), UniProt P65502); type: functional, Staphylococcus aureus subsp. aureus N315; conditions: read-out: IC50_Mean;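 on IC50 Mean: confirmatory dose-response retesting of NadD inhibitor hits first found in an ultra-high-throughput screen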
[20] = biological target: T6, Probable nicotinate-nucleotide adenylyltransferase; type: functional, Staphylococcus aureus subsp. aureus N315

T2 sequence (Q9P0U3 whole entry, the tested form may be a part): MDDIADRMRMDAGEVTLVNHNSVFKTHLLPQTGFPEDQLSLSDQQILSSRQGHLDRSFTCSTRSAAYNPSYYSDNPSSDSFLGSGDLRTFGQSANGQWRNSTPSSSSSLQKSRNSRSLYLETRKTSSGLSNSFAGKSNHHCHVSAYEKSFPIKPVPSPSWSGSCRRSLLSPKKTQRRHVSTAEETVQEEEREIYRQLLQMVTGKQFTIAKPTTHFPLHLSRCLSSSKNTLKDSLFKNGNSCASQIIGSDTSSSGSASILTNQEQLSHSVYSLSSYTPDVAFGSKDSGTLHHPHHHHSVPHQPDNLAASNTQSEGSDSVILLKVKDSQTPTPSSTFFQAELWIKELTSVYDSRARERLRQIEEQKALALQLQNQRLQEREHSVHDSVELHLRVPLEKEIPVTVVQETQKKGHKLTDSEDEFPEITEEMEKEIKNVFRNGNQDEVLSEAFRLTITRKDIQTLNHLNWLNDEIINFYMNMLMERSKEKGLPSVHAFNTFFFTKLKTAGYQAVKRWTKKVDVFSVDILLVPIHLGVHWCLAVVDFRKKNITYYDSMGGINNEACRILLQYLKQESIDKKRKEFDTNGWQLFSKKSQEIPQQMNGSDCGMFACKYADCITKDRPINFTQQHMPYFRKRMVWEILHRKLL
T6 sequence (P65502 whole entry): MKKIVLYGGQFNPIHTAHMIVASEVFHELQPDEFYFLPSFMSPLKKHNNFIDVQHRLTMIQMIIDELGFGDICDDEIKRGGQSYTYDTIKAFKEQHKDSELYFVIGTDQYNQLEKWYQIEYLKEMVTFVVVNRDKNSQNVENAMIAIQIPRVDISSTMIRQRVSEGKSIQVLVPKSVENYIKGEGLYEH
T3 sequence (P63165 whole entry): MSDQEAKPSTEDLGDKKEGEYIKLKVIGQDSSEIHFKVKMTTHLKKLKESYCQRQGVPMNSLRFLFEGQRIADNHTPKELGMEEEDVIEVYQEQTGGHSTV
Chain of Paired box protein Pax-8 (Q06710 whole entry): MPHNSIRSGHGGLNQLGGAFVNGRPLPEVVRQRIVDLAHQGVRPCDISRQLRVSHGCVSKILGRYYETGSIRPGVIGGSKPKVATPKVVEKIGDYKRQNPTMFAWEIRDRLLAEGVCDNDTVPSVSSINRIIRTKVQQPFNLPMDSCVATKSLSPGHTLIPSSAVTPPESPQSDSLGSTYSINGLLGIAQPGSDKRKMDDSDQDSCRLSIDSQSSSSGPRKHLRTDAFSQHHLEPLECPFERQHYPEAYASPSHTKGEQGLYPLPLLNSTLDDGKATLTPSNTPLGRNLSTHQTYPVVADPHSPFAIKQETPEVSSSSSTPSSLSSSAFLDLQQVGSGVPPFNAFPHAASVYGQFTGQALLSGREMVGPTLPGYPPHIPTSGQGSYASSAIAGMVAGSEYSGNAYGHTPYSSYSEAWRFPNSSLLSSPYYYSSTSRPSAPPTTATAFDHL
Chain of Neurotensin receptor type 1 (P30989 whole entry): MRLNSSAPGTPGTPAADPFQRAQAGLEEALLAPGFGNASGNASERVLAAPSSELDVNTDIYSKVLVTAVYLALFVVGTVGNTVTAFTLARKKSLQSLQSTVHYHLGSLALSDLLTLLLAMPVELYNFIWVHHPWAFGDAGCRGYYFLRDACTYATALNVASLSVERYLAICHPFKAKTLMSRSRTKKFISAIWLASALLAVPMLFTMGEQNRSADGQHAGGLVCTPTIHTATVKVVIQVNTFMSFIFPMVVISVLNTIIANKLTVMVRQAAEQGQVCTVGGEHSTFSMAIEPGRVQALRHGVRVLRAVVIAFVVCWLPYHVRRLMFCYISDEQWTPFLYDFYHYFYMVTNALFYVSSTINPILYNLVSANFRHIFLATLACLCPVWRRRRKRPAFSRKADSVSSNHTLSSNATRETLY
Chain of Albumin (P02769 whole entry): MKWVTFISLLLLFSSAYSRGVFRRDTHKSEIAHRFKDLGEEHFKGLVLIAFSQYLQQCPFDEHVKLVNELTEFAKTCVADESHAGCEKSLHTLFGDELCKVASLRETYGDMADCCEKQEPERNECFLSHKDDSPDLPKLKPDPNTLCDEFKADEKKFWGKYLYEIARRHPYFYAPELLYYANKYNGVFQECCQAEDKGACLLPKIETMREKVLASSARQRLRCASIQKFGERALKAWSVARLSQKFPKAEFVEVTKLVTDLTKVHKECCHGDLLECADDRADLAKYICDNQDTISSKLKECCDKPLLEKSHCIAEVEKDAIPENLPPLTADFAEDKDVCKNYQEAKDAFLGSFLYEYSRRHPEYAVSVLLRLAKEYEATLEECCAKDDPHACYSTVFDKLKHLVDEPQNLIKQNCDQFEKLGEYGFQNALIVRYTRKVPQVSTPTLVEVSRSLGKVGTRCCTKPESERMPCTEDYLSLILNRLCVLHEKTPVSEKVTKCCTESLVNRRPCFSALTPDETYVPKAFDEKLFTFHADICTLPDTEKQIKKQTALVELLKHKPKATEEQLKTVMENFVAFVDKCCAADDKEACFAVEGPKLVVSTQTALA
Chain of Fructose-bisphosphate aldolase (P9WQA3 whole entry): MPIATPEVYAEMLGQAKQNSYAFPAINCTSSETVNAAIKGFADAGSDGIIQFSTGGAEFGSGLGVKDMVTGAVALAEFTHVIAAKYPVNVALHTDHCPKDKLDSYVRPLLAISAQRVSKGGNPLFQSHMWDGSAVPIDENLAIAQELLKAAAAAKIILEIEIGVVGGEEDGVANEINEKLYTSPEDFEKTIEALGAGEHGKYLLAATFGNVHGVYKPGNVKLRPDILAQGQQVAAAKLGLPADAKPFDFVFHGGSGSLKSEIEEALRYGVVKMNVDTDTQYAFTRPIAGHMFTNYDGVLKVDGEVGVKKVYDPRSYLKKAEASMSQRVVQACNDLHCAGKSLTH

C/C(=N\NC(=O)c1ccccc1F)c1ccc2c(c1)Nc1ccccc1S2
IC50 [1]: 54.7 µM (active)
IC50 [2]: 11.2 µM (active)
IC50 [3]: 10.5 µM (active)

CN1CCN(C(=O)COc2ccc(-c3nc4ccccc4s3)cc2)CC1
IC50 [4]: 3.57 µM (active)

CCCC(C)C(=O)Nc1nc(C)c(-c2csc(Nc3cc(Cl)ccc3C)n2)s1 (stereo not given)
IC50 [5]: > 66.6 µM (inactive)
IC50 [6]: 10.2 µM (active)

CC(C)Nc1ccc(Nc2ccnc3cc4ccccc4cc23)cc1
AC50 [7]: 782 nM (active)
EC50 [8]: 12.2 µM (active)
IC50 [1]: 20 µM (active)
AC50 [9]: 51.2 µM (active)
EC50 [10]: 4.73 µM (active)
EC50 (BJ [11]): 5.35 µM (inconclusive)
EC50 (BJ [12]): 9.05 µM (inconclusive)
AC50 (INS1): 3.15 µM (active)
CC50 [13]: 17.2 µM (active)
EC50 [14]: 632 nM (active)
EC50 (BJ [15]): 3.71 µM (inconclusive)
AC50 (Paired box protein Pax-8): 7.04 µM (active)
EC50 [16]: 6.48 µM (active)

COC(=O)CC1(C(=O)OC)Nc2cc(Cl)c(Cl)cc2S(=O)(=O)N1O (stereo not given)
EC50 [17]: 1.14 µM (active)
EC50 [18]: > 99 µM (inactive)
IC50 (Albumin): > 94.2 µM (inactive)

Oc1ccc(C[C@H]2CNC(=S)N2CC2CCCN2C[C@H](Cc2ccccc2)N2C[C@H](Cc3ccc(O)cc3)N(CCc3ccccc3)C2=S)cc1 (stereo not given in full)
IC50 [19]: 30.5 µM (active)
AC50 (Paired box protein Pax-8): 11.5 µM (active)
IC50 [20]: 17 µM (active)
